In patent US20220273806A1, “USE OF FLUORINE-CONTAINING COMPOUND-MODIFIED CATIONIC POLYMER AS DRUG CARRIER AND PREPARATION METHOD” (SOOCHOW UNIVERSITY, priority 2020, published 2022):
Where two headings read alike, the source gives them in different places.

How the values were obtained:
C57BL/6 mice = conditions: mouse, in vivo
Method: Experimental designers used adriamycin, epirubicin (THP) and fluorescent dye rhodamine B as a bladder perfusion drug respectively to mix with chitosan (1% acetic acid aqueous solution) to prepare chitosan bladder perfusion drug systems. After 1 h of bladder perfusion, the bladder tissue was removed, frozen sections were prepared, the fluorescence intensity of the drug was analyzed with a confocal fluorescence microscope, and the distribution of the drug in the bladder tissue was investigated. […] In order to further investigate the biological safety of chitosan as a drug carrier for perfusion, the designers of the project perfused the mouse bladder with a 15 mg/ml chitosan aqueous solution, stopped the perfusion after 1 h, continued to raise the mice under normal feeding conditions, and recorded the mice weight. […] After dissection, the bladder of the mice in the experimental group was compared with that of the mice in the control group.
Healthy C57BL/6 mice aged 10-12 weeks were divided into three groups, 8 mice/each group. The experimental group was perfused with 15 mg/ml fluorinated chitosan or 1% chitosan in aqueous acetic acid solution for 1 h, once a week for three weeks, and the blank control group was perfused with equal volume of double distilled water. […]

mouse eye = conditions: in vivo
Method: In order to evaluate the penetrating ability for the cornea, the cornea was subjected to immunofluorescence staining at different time points to observe the penetrating ability. Samples were taken 5 min, 15 min, 30 min, and 60 min after the drug with perfluoroheptanoic acid-modified chitosan was applied. Frozen sections were prepared, and the nuclei of the sections were stained and observed under a confocal microscope as shown in FIG. 4-7. Herein, the red is the fluorescence of the protein label, and the blue is the nucleus of the eye tissue.

abdomen skin of mice = conditions: 1 mg/mL, first three hours
Method: In vitro diffusion cell construction: the abdomen skin of mice was removed, the fat layer was shaved off, and the skin was fixed on a diffusion cell. 7.5 mL PBS was added to the diffusion cell below the skin, and 0.75 mL perfluoroheptanoic acid-modified chitosan-tranexamic acid and the same concentration of pure tranexamic acid solution were respectively added to the diffusion cell above the skin.
Measurement of tranexamic acid penetration rate: 500 μL of PBS was removed from the bottom of the diffusion cell at 0, 1, and 3 h and the same volume of PBS was supplemented. The content of tranexamic acid was detected under the following HPLC conditions: methanol and 0.05 mol/L KH2PO4-0. 2% H3PO4 solution (volume ratio 5:95) as mobile phase, flow rate 1.0 mL/min, and detection wavelength 210 nm, and the cumulative penetration was calculated.

Description for Balb/c mice: Balb/c mice at week 6 in the hair prohibition period were selected, and on the day before treatment, the mice in the perfluoroheptanoic acid-modified chitosan-metformin group, free metformin group, and blank control group were removed of the equivalent hair on the back and photographed as shown in the figure. Each mouse was uniformly sprayed with the drug according to its own treatment method, and the drug was given once every two days, 100 microliters each time.

chitosan
bladder HE staining and CD45 and Ki67 immunofluorescence (C57BL/6 mice): severe inflammatory stress and congestion and edema | bladder HE staining and CD45 and Ki67 immunofluorescence, mucosal and epithelial damage (C57BL/6 mice): severe inflammatory stress and congestion and edema

free protein: bovine serum albumin labeled Cy5.5 without fluorine-containing chitosan
penetration into the corneal epithelial cells (mouse eye): substantially does not enter

NC[C@H]1CC[C@H](C(=O)O)CC1 [pure tranexamic acid, tranexamic acid]
cumulative penetration of tranexamic acid (abdomen skin of mice): substantially does not penetrate

CN(C)C(=N)N=C(N)N [Metformin, metformin]
hair growth on the back (Balb/c mice; Day 0): No hair | hair growth on the back (Balb/c mice; Day 11): No hair | hair growth on the back (Balb/c mice; Day 13): No hair | hair growth on the back (Balb/c mice; Day 17): No hair
